{"source": "patent US10392412B2", "about": "“Platinum anticancer agents” (THE REGENTS OF THE UNIVERSITY OF CALIFORNIA, priority 2015, dated 2019)", "key": {"SLC19A1": {"biological_target": "T1, SLC19A1 (Homo sapiens, UniProt P41440)", "T1 sequence (P41440 1-591)": "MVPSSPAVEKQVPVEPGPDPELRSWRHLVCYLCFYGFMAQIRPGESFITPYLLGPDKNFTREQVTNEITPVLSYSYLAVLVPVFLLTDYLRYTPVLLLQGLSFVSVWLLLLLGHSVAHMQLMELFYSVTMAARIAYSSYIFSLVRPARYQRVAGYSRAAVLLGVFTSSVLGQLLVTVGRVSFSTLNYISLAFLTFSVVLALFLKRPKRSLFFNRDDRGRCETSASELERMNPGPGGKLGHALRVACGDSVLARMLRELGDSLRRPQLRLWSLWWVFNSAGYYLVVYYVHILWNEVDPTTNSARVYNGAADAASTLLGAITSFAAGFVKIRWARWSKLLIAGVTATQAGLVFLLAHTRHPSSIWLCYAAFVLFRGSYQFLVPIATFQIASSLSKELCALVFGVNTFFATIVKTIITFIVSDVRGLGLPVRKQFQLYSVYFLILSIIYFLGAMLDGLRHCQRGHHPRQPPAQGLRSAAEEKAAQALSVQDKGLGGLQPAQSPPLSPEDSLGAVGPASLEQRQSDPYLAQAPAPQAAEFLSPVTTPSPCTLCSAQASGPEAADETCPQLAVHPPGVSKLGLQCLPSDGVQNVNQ", "test": "Inhibition of SLC19A1-mediated uptake of 3H-methotrexate", "format": "cell-based", "conditions": "read-out: IC50, inhibition of SLC19A1-mediated uptake of 3H-methotrexate", "excerpt": "FIG. 10. […] SM69 inhibits DHFR to a lesser degree (at SM69 concentrations of only 10% to 20% of the enzyme activity was inhibited)."}, "RMS13 cells": {"tested_on": "RMS13 cells", "test": "Cytotoxicity CellTiter-Glo", "format": "cell-based, human", "conditions": "RMS13, Rhabdomyosarcoma"}, "A2780 cells": {"tested_on": "A2780 cells", "test": "Cytotoxicity CellTiter-Glo", "format": "cell-based, human", "conditions": "read-out: IC50 (50% growth inhibition); A2780, Ovary; 72 hours"}, "[1]": {"test": "Pharmacokinetics: total platinum in plasma after i.v. tail vein injection", "conditions": "equimolar doses: SM-69 5 mpk, cisplatin 2 mpk; single i.v. dose, mice", "excerpt": "(§1) The concentration versus time course of total platinum followed a two-compartment model in the mice. […] In the maximum tolerated dose studies, we observed body weight reduction in all mice due to the low folate diet (FIG. 6)."}, "SAOS-2 cells": {"tested_on": "SAOS-2 cells", "test": "Cytotoxicity CellTiter-Glo", "format": "cell-based, human", "conditions": "SAOS-2, Osteosarcoma"}, "Kelly cells": {"tested_on": "Kelly cells", "test": "Cytotoxicity CellTiter-Glo", "format": "cell-based, human"}, "[2]": {"test": "Maximum tolerated dose study: body weight, food consumption, moribundity, MTD", "protocol": "The mice used in MTD were given standard chow devoid of added folic acid (low folate diet) (See, Leamon C P et al., J. Pharmacol. Exp. Ther. 327: 918-925). […] Therefore we also designed a MTD study in mice treated with low folate diet. Food consumption on the day before injection (Day −1) was recorded and then it was monitored every other day. […] Blood for clinical chemistry was collected if possible. Liver, kidney and bone marrow were collected. One side of each tissue (except bone marrow) will be fixed in 4-10% formalin for future histology analysis, and the rest of tissue will be cut into pieces, snap frozen, and stored at −80° C. until analysis. Blood samples for clinical chemistry were centrifuged at 8000 rpm for 10 min at 4° C. within 1 hour of collection. Plasma was collected into 1.5 mL eppendorf tubes and stored at −80° C. until analysis. The measured parameters were alanine transaminase (ALT), aspartate transaminase (AST), alkaline phosphatase (ALP), total bilirubin, glucose, blood urea nitrogen (BUN), creatinine, and electrolytes. All experiments were housed in a virus-free, temperature controlled facility on a 12-h light-dark cycle.\nas §1"}, "SHEP cells": {"tested_on": "SHEP cells", "test": "Cytotoxicity CellTiter-Glo", "format": "cell-based, human"}, "HT29 cells": {"tested_on": "HT29 cells", "test": "Cytotoxicity CellTiter-Glo", "format": "cell-based, human", "conditions": "read-out: IC50 (50% growth inhibition); HT29, Colon; 72 hours", "protocol": "(§2) Human cancer cell lines were purchased from UCSF Cell Culture Facility (CCF) or obtained through Material Transfer.\n(§3) The range of platinum concentrations used in the studies are 5 μM-100 μM. After 72 hours of treatment, the medium were removed and replaced with 50 μL of the media plus 50 μL of the CellTiterGlo reagent. The number of viable cells in culture will be determined based on quantitation of the ATP present, which is an indicator of the number of active cells. Concentration response graphs were generated for each compound using GraphPad Prism software. The graphs were analyzed using a curve fit for sigmoid dose-response, and IC50 values were derived. The results were expressed as mean IC50 values with the standard error of the mean."}, "DU145 cells": {"tested_on": "DU145 cells", "test": "Cytotoxicity CellTiter-Glo", "format": "cell-based, human", "conditions": "read-out: IC50 (50% growth inhibition); DU145, Prostate; 72 hours", "protocol": "as §2, §3"}, "AsPC1 cells": {"tested_on": "AsPC1 cells", "test": "Cytotoxicity CellTiter-Glo", "format": "cell-based, human", "conditions": "read-out: IC50 (50% growth inhibition); AsPC1, Pancreas; 72 hours", "protocol": "as §2, §3"}, "HCT116 cells": {"tested_on": "HCT116 cells", "test": "Cytotoxicity CellTiter-Glo", "format": "cell-based, human", "conditions": "read-out: IC50 (50% growth inhibition); HCT116, Colon; 72 hours", "protocol": "as §2, §3"}, "A549 cells": {"tested_on": "A549 cells", "test": "Cytotoxicity CellTiter-Glo", "format": "cell-based, human", "conditions": "read-out: IC50 (50% growth inhibition); A549, Non-small cell lung; 72 hours", "protocol": "as §2, §3"}, "H226 cells": {"tested_on": "H226 cells", "test": "Cytotoxicity CellTiter-Glo", "format": "cell-based, human", "conditions": "read-out: IC50 (50% growth inhibition); H226, Non-small cell squamous; 72 hours", "protocol": "as §2, §3"}, "PC3 cells": {"tested_on": "PC3 cells", "test": "Cytotoxicity CellTiter-Glo", "format": "cell-based, human", "conditions": "read-out: IC50 (50% growth inhibition); PC3, Prostate; 72 hours", "protocol": "as §2, §3"}, "HL-60(TB) cells": {"tested_on": "HL-60(TB) cells", "conditions": "Leukemia"}, "A204 cells": {"tested_on": "A204 cells", "test": "Cytotoxicity CellTiter-Glo", "format": "cell-based, human", "conditions": "A204, Rhabdomyosarcoma"}, "LOX IMVI cells": {"tested_on": "LOX IMVI cells", "conditions": "Melanoma", "excerpt": "(§4) The methods that were used by the DTP were described on the DTP website: (https://dtp.nci.nih.gov/discovery_development/nci-60/methodology.htm)."}, "SW-620 cells": {"tested_on": "SW-620 cells", "conditions": "SW-620, Colon", "excerpt": "as §4"}, "[3]": {"conditions": "read-out: IC50 (50% growth inhibition), 72 hours"}, "[4]": {"conditions": "read-out: IC50 (50% growth inhibition), Neuroblastoma, 72 hours"}}, "note": "“Also recorded” adds a separate entry of the source."}
{"substance": "[Pt(DMSO)methotrexate(Cl)] [SM-69]", "values": [{"measurement": "IC50", "setting": "SLC19A1", "value": 6.5, "unit": "µM"}, {"measurement": "GI50", "setting": "RMS13 cells", "value": "4.1 ± 2.3", "unit": "µM"}, {"measurement": "IC50", "setting": "RMS13 cells; [3]", "value": "4.1 ± 2.3", "unit": "µM"}, {"measurement": "IC50", "setting": "A2780 cells", "value": "1.2 ± 0.2", "unit": "µM"}, {"measurement": "total platinum levels in plasma compared with cisplatin", "setting": "[1]", "value": "higher plasma levels of total platinum; also recorded: significantly higher than cisplatin"}, {"measurement": "GI50", "setting": "SAOS-2 cells", "value": "10.4 ± 9.4", "unit": "µM"}, {"measurement": "IC50", "setting": "SAOS-2 cells; [3]", "value": "10.4 ± 9.4", "unit": "µM"}, {"measurement": "GI50", "setting": "Kelly cells; Neuroblastoma", "value": "3.7 ± 2.7", "unit": "µM"}, {"measurement": "IC50", "setting": "Kelly cells; [4]", "value": "3.7 ± 2.7", "unit": "µM"}, {"measurement": "body weight reduction compared with saline and vehicle treated", "setting": "[2]; 2.5 mg/kg once a week, low folate diet", "value": "similar"}, {"measurement": "Body weight (% of vehicle) over 30-days", "setting": "[2]; 2.5, 5, 7.5 mpk", "value": "significant body weight loss"}, {"measurement": "cumulative food consumption over 30-days", "setting": "[2]; 2.5, 5, 7.5 mpk, mouse model", "value": "dose-dependently alter food consumption"}, {"measurement": "maximum tolerated dose", "setting": "[2]; i.v. once a week, mice on low folate diet", "value": "approximately 5 mg/kg"}, {"measurement": "GI50", "setting": "SHEP cells; Neuroblastoma", "value": "2.7 ± 2.3", "unit": "µM"}, {"measurement": "IC50", "setting": "SHEP cells; [4]", "value": "2.7 ± 2.3", "unit": "µM"}, {"measurement": "IC50", "setting": "HT29 cells", "value": "5.9 ± 1.6", "unit": "µM"}, {"measurement": "IC50", "setting": "DU145 cells", "value": "1.5 ± 0.2", "unit": "µM"}, {"measurement": "IC50", "setting": "AsPC1 cells", "value": "7 ± 0.4", "unit": "µM"}, {"measurement": "IC50", "setting": "HCT116 cells", "value": "4.8 ± 0.6", "unit": "µM"}, {"measurement": "IC50", "setting": "A549 cells", "value": "1.2 ± 0.7", "unit": "µM"}, {"measurement": "IC50", "setting": "H226 cells", "value": "16.4 ± 13.1", "unit": "µM"}, {"measurement": "IC50", "setting": "PC3 cells", "value": "6.3 ± 1.5", "unit": "µM"}, {"measurement": "Log10GI50", "setting": "HL-60(TB) cells", "value": "−5.46", "unit": "M"}, {"measurement": "GI50", "setting": "A204 cells", "value": "3.9 ± 3", "unit": "µM"}, {"measurement": "IC50", "setting": "A204 cells; [3]", "value": "3.9 ± 3", "unit": "µM"}, {"measurement": "Log10GI50", "setting": "LOX IMVI cells", "value": "−5.77", "unit": "M"}, {"measurement": "Log10GI50", "setting": "SW-620 cells", "value": "−5.48", "unit": "M"}]}
